Values quoted from earlier work as cited in patent publication US12156872B2, “Combination therapies for treating cancer” (TESARO, Inc., priority 2017, dated 2024).
Read-outs that look alike come from different tables or passages of the source.

Experiments:
PARP = details: hydrogen peroxide stimulated, various cell lines
[1] = system: cancer cell lines silenced for BRCA-1 or BRCA-2, or carrying BRCA-1 or BRCA-2 mutations
[2] = system: MDA-MB-436, CAPAN-1, GRANTA-519, OVCAR3, HT29, DLD-1, patient derived Ewing's sarcoma and TNBC xenograft models; details: xenograft models in mice
[3] = system: Ewing's sarcoma, ALL, NSCLC, SCLC cell lines and tumor cell lines with homozygous inactivation of the ATM gene
[4] = system: non-small-cell lung cancer, melanoma, and renal-cell cancer; details: Phase I clinical trial
OC = details: single agent
TNBC = details: single agent, previously treated TNBC

## NC(=O)c1cccc2cn(-c3ccc([C@@H]4CCCNC4)cc3)nc12 [niraparib, (3S)-3-[4-{7-(aminocarbonyl)-2H-indazol-2-yl}phenyl]piperidine]
PARP; read-out: IC50 of PARP activity in cells
  IC50: […]
PARP; read-out: inhibitory concentration at 90% of control (IC90) of PARP activity in cells
  IC90: […]
[1]
  cell cycle effect: cell cycle arrest in G2/M followed by apoptosis
[1]; compared to wild type counterparts
  anti-proliferative activity: selective anti-proliferative activity
[1]; listed as Niraparib
  cell cycle effect: arrest in the G2/M phase of the cell cycle
[2]
  antitumor activity: strong antitumor activity
Normal human cells
  activity on normal human cells: weak activity
[3]
  cytotoxicity: selectively cytotoxic

## nivolumab: PD-1 antibody (Human IgG4), Bristol-Myers Squibb / ONO
[4]
  clinical response: complete or partial responses
OC
  objective response rate (ORR): 15%

## pembrolizumab: anti-PD-1 monoclonal antibody, immunoglobulin G4/kappa isotype humanized mAb (SEQ ID NO: 1 and 2)
TNBC
  objective response rate (ORR): 4.7%
